Reference: publication PMC6273446, “Preliminary LC-MS Based Screening for Inhibitors of Plasmodium falciparum Thioredoxin Reductase (PfTrxR) among a Set of Antimalarials from the Malaria Box” (Molecules, 2016)
pEC50, pIC50: −log10 of the molar value. Where two headings read alike, the source gives them in different places.

How the values were obtained:
P. falciparum 3D7 = conditions: read-out: Pf(3D7) EC50, cited from earlier work
[1] = target: T1, Plasmodium falciparum thioredoxin reductase (PfTrxR) (Plasmodium falciparum, UniProt P61076); experiment: biochemical; format: biochemical; conditions: for Hill slope of dose response curve against PfTrxR: Figure 2; for pIC50: cytosolic PfTrxR (PfTrxR 1 isoform), titrated 50 to 0.07 µM
T1 sequence (P61076 1-541 isoform P61076-2): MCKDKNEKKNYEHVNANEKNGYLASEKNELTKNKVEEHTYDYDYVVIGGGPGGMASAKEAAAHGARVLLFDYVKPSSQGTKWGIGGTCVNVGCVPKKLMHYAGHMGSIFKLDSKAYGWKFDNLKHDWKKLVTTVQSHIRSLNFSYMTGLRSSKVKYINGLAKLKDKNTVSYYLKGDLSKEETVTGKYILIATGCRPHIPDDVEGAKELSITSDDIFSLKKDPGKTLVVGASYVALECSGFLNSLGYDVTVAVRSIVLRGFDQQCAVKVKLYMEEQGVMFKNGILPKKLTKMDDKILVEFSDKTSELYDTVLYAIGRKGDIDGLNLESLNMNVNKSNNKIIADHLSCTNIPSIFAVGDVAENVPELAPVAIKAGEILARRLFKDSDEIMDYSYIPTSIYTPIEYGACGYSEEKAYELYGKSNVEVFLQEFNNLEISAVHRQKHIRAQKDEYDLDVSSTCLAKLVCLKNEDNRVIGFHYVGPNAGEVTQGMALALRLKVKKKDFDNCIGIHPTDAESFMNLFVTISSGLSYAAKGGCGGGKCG

[2] = test system: MRC-5 cells (human fetal lung cells); conditions: cited from earlier work
[3] = chloroquine sensitive, sulfadoxine resistant strain, MMV database ref 10
[4] = read-out: MRC-5 Cells IC50, human fetal lung cells, cytotoxicity, MMV database ref 10

SMILES | pEC50 (P. falciparum 3D7; [3]) | Hill slope of dose response curve against PfTrxR [1] | pIC50 [1] | pIC50 [2, 4] | pEC50 (P. falciparum 3D7) | pIC50 [2]
COc1ccccc1NC1=C(N2CCCCC2)C(=O)c2ccccc2C1=O [Compound 2, 2-(2-methoxyanilino)-3-piperidin-1-ylnaphthalene-1,4-dione] | 8.28 | 0.6031 | 6.05 | 4.16 |  | 
C[C@@H]1CC[C@H]2[C@@H](C)C(=O)O[C@@H]3O[C@@]4(C)CC[C@@H]1[C@]32OO4 [Artemisinin, reference compound] | 7.68 |  |  |  |  | 
COc1ccc(-c2c(C)nn3c(N)c(C#N)cnc23)cc1OC [Compound 4, 7-amino-3-(3,4-dimethoxyphenyl)-2-methylpyrazolo[1,5-a]pyrimidine-6-carbonitrile] | 6.32 | 2.0020 |  | < 4.00 |  | 
CCN(CC)CCCC(C)Nc1ccnc2cc(Cl)ccc12 (centres unmarked) [Chloroquine, reference compound] | 7.56 |  |  |  |  | 
O=C1C(O)=C([C@H]2CC[C@H](c3ccc(Cl)cc3)CC2)C(=O)c2ccccc21 [Atovaquone, reference compound] |  |  | < 5.00 |  | 9.62 | 
CCc1c(C)c(=N)c2ccccc2n1C [Compound 1, 2-ethyl-1,3-dimethylquinolin-4-imine;hydroiodide] | 6.42 | 1.1420 | 5.46 |  |  | 
N.N.[Cl][Pt][Cl] [Cisplatin, reference compound] |  |  |  |  |  | 4.71
CCCc1c(CC)c(=N)c2ccccc2n1C [Compound 5, 3-ethyl-1-methyl-2-propylquinolin-4-imine;hydron;iodide] | 6.62 | 1.1510 | 5.12 | 4.15 |  | 
CCOc1cc2c(cc1OCC)C(c1cc(OC)c(O)cc1Cl)NCC2 (centres unmarked) [Compound 3, 5-chloro-4-(6,7-diethoxy-1,2,3,4-tetrahydroisoquinolin-1-yl)-2-methoxyphenol] | 6.43 | 0.8022 | 5.18 | 4.07 |  | 
